Experimental data taken from patent publication US8063221B2, “Aminoquinolones as GSK-3 inhibitors” (Kyorin Pharmaceutical Co., Ltd., priority 2006, dated 2011).
≈ marks a conversion by molar mass, not a printed value. Read-outs that look alike come from different tables or passages of the source.

Legend:
[1] = Animal Study 2 (oral glucose tolerance test); set-up: species or system Crlj:CD1 (ICR) mice; settings: Mus musculus, read-out: In vivo studies 300 mg/kg (oral glucose tolerance test, % decrease)
Description: The results of in vivo oral glucose tolerance test (Example 39), expressed as % decrease, are presented as follows: […]
Animal Study 2 (Oral Glucose Tolerance Test)
Male Crlj:CD1 (ICR) mice were obtained from Charles River Laboratries Japan (Yokohama, Japan). All mice were given a standard diet (Clea Japan, Tokyo, Japan) and tap water ad libitum. All institutional guidelines for animal care and use were applied in this study. Test compounds were suspended in 0.3% carboxymethyl-cellulose sodium salt (CMC-Na; Sigma, St. Louis, Mo.). After fasting for 15-17 hr, the test compound (300 mg/kg) or vehicle (0.3% CMC-Na) was orally administered to 7-week-old ICR mice. Glucose solution (5 g/kg) was orally administered at 30 min after test compound treatment. Blood samples were collected from tail vein using capillary tubes containing EDTA·2K before test compound treatment, and at 0, 0.5, 1, and 2 hr after glucose load. The blood samples were centrifuged at 2,500×g for 5 min and separated plasma was kept on ice and analyzed in the same day. Plasma glucose levels were determined using the glucose C II-test (Wako Pure Chemical Industries, Osaka, Japan).
The sum of plasma glucose levels at 0.5 and 1 hr after glucose load was compared to that of vehicle treatment, and results were presented as percent decrease.

[2] = biological target: T1, recombinant full-length human GSK3β (Homo sapiens, UniProt P49841); assay: Luciferase-coupled cell-free GSK3β kinase assay; format: biochemical
T1 construct: recombinant full-length human GSK3β (Upstate); purchased Upstate
T1 sequence (P49841 whole entry): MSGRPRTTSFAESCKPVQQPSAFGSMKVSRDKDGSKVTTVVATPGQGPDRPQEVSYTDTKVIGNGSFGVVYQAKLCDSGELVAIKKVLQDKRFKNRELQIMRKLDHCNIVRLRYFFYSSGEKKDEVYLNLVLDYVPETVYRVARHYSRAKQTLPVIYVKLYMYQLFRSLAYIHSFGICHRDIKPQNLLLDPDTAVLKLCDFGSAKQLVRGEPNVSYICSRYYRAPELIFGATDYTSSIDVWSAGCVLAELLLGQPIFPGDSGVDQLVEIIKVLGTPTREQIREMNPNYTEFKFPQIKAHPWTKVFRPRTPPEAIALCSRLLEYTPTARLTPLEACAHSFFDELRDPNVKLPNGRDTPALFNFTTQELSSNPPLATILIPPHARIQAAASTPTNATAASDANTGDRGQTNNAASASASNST
In short: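 GSK3β, 10-25 ng, was incubated with compound for 1 h at 30° C in MOPS pH 7.0 buffer containing 62.5 μM phospho-glycogen synthase peptide-2 and 5 μM ATP. Remaining ATP was read by KinaseGlo luminescence, and IC50 was fitted from % inhibition relative to maximal inhibition.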

E. coli, ATCC8739 = assay: Antibacterial activity (MIC), E. coli; format: cell-based; settings: Escherichia coli
In short: (§1)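 MIC, the lowest compound concentration inhibiting bacterial growth in culture medium, determined by dilution method per CLSI M7-A4 guidance; reported in μM.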

S. aureus Smith = assay: Antibacterial activity (MIC), S. aureus; format: cell-based; settings: Staphylococcus aureus
In short: as §1

[3] = Table 2, 300 mg/kg oral, ICR mice, plasma glucose 0.5 and 1 hr after glucose load vs vehicle
[4] = ATCC8739, Table 2, E. coli ATCC8739, read-out: Antimicrobial MIC [μM] E. Coli
[5] = Table 2, S. aureus Smith, read-out: Antimicrobial MIC [μM] S. aureus
[6] = ATCC8739, Table 1, E. coli ATCC8739, read-out: Antibacterial MIC (μM) E.Coli
[7] = Table 1, read-out: Antibacterial MIC (μM) S. aureus Smith
[8] = ATCC8739, read-out: Antibacterial MIC (μM) E.Coli
[9] = read-out: Antibacterial MIC (μM) S. aureus Smith

SMILES | inhibition in vivo at 300 mg/kg [1, 3] | IC50 ([2]; Table 2) | IC50 ([2]; Table 1) | MIC (E. coli, ATCC8739; [6]) | MIC (S. aureus Smith; [7]) | also measured
Cc1nn(C)c(C)c1CCCNc1c(F)c(N)c2c(=O)c(C(=O)O)cn3c2c1OC[C@@H]3C [Example 93] | > 20% | – | – | – | – | –
C[C@H]1COc2c(NCCOc3ccc(F)cc3)c(F)c(N)c3c(=O)c(C(=O)O)cn1c23 [Example 101] | 10 to 20% | < 100 nM | – | – | – | –
C[C@H]1COc2c(NCCCn3ccnc3)c(F)c(N)c3c(=O)c(C(N)=O)cn1c23 [Example 107] | 10 to 20% | 100 to 500 nM | – | – | – | –
C[C@H]1COc2c(NCCNc3ccccn3)c(F)c(N)c3c(=O)c(C(N)=O)cn1c23 [Example 109] | 10 to 20% | < 100 nM | – | – | – | –
C[C@H]1COc2c(NCCS(=O)(=O)N3CCCCC3)c(F)c(N)c3c(=O)c(C(=O)O)cn1c23 [Example 112] | < 5% | < 100 nM | – | – | – | –
C[C@H]1COc2c(NCCNC3=NS(=O)(=O)c4ccccc43)c(F)c(N)c3c(=O)c(C(=O)O)cn1c23 [Example 113] | < 5% | < 100 nM | – | – | – | –
C[C@H]1COc2c(NCCCn3ccnc3)c(F)c(N)c3c(=O)c(C#N)cn1c23 [Example 114] | > 20% | < 100 nM | – | – | – | –
C[C@H]1COc2c(NCCCc3ccccn3)c(F)c(N)c3c(=O)c(C#N)cn1c23 [Example 115] | < 5% | < 100 nM | – | – | – | –
CC1(C)COc2c(NCCNc3ccccn3)c(F)c(N)c3c(=O)c(C(=O)O)cn1c23 [compound 17] | – | – | – | – | – | inhibition in vivo at 300 mg/kg ([1]; po): 10 to 20%
CC(C)C[C@H]1COc2c(NCCCn3cnc4ccccc43)c(F)c(N)c3c(=O)c(C(=O)O)cn1c23 [compound 49] | – | – | – | – | – | inhibition in vivo at 300 mg/kg ([1]; po): 10 to 20%
CC(C)[C@H]1COc2c(NCCCn3ccnc3)c(F)c(N)c3c(=O)c(C(=O)O)cn1c23 [compound 55] | – | – | – | – | – | inhibition in vivo at 300 mg/kg ([1]; po): 10 to 20%
CC(C)[C@H]1COc2c(NCCNc3ccccn3)c(F)c(N)c3c(=O)c(C(=O)O)cn1c23 [compound 61] | – | – | – | – | – | inhibition in vivo at 300 mg/kg ([1]; po): 10 to 20%
CC(C)[C@@H]1COc2c(NCCCc3ccccc3)c(F)c(N)c3c(=O)c(C(=O)O)cn1c23 [compound 64] | – | < 100 nM | – | – | – | MIC (E. coli, ATCC8739; [4]): 0.5 to 10 µM (≈ 0.22 to 4.39 µg/mL); MIC (S. aureus Smith; [5]): 0.5 to 10 µM (≈ 0.22 to 4.39 µg/mL)
CC(C)[C@@H]1COc2c(NCCCn3cnc4ccccc43)c(F)c(N)c3c(=O)c(C(=O)O)cn1c23 [compound 65] | – | < 100 nM | – | – | – | MIC (E. coli, ATCC8739; [4]): 0.5 to 10 µM (≈ 0.24 to 4.8 µg/mL); MIC (S. aureus Smith; [5]): 0.5 to 10 µM (≈ 0.24 to 4.8 µg/mL)
Nc1c(F)c(NCCCc2ccccc2)c(F)c2c1c(=O)c(C(=O)O)cn2CCCn1ccnc1 [compound 65] | – | – | 100 to 500 nM | 10 to 50 µM (≈ 4.82 to 24.1 µg/mL) | 10 to 50 µM (≈ 4.82 to 24.1 µg/mL) | –
Nc1cc(NCCNc2cccc3ccccc23)cc2c1c(=O)ccn2C1CC1 [compound 66] | – | – | < 100 nM | 10 to 50 µM (≈ 3.84 to 19.2 µg/mL) | 10 to 50 µM (≈ 3.84 to 19.2 µg/mL) | –
COc1c(NCCCc2ccccc2)c(F)c(N)c2c(=O)c(C(=O)O)cn(C3CC3)c12 [compound 67] | – | – | < 100 nM | 10 to 50 µM (≈ 4.25 to 21.3 µg/mL) | 0.5 to 10 µM (≈ 0.213 to 4.25 µg/mL) | –
C[C@H]1COc2c(NCCCN3CCCc4ccccc43)c(F)c(N)c3c(=O)c(C(=O)O)cn1c23 [compound 67] | 10 to 20% | < 100 nM | – | – | – | –
COc1c(NCCc2ccncc2)c(F)c(N)c2c(=O)c(C(=O)O)cn(C3CC3)c12 [compound 68] | – | – | 500 to 1000 nM | 10 to 50 µM (≈ 4.12 to 20.6 µg/mL) | 0.5 to 10 µM (≈ 0.206 to 4.12 µg/mL) | –
COc1c(NCCCn2ccnc2)c(F)c(N)c2c(=O)c(C(=O)O)cn(C3CC3)c12 [compound 69] | – | – | < 100 nM | 10 to 50 µM (≈ 4.15 to 20.8 µg/mL) | 0.5 to 10 µM (≈ 0.208 to 4.15 µg/mL) | –

SMILES | inhibition in vivo at 300 mg/kg [1, 3] | IC50 ([2]; Table 2) | IC50 ([2]; Table 1) | MIC (E. coli, ATCC8739; [6]) | MIC (S. aureus Smith; [7]) | also measured
C[C@H]1COc2c(NCCCc3ccccn3)c(F)c(N)c3c(=O)c(C(=O)O)cn1c23 [compound 70] | > 20% | < 100 nM | – | – | – | –
C[C@H]1COc2c(NCCCc3ccc(F)cc3)c(F)c(N)c3c(=O)c(C(=O)O)cn1c23 [compound 72] | > 20% | < 100 nM | – | – | – | –
Nc1c(F)c(NCCCc2ccccc2)c(F)c2c1c(=O)ccn2C1CCCC1 [compound 72] | – | – | < 100 nM | 10 to 50 µM (≈ 3.97 to 19.9 µg/mL) | 10 to 50 µM (≈ 3.97 to 19.9 µg/mL) | –
Nc1c(F)c(NCCc2ccncc2)c(F)c2c1c(=O)ccn2C1CCCC1 [compound 73] | – | – | < 100 nM | > 50 µM | > 50 µM | –
Nc1c(F)c(NCCCn2ccnc2)c(F)c2c1c(=O)ccn2C1CCCC1 [compound 74] | – | – | < 100 nM | > 50 µM | > 50 µM | –
CC(C)OCCCNc1c(F)c(N)c2c(=O)ccn(C3CCCC3)c2c1F [compound 75] | – | – | 100 to 500 nM | > 50 µM | > 50 µM | –
CCN(CCCNc1c(F)c(N)c2c(=O)c(C(=O)O)cn3c2c1OC[C@@H]3C)c1ccccc1 [compound 76] | > 20% | < 100 nM | – | – | – | –
Nc1c(F)c(NCCNc2ccccn2)c(F)c2c1c(=O)ccn2C1CCCC1 [compound 76] | – | – | < 100 nM | > 50 µM | > 50 µM | –
COc1c(NCCNc2ccccn2)c(F)c(N)c2c(=O)c(C(=O)O)cn(C3CCCC3)c12 [compound 77] | – | – | > 1000 nM | 10 to 50 µM (≈ 4.55 to 22.8 µg/mL) | 0.5 to 10 µM (≈ 0.228 to 4.55 µg/mL) | –
COc1c(NCCCn2ccnc2)c(F)c(N)c2c(=O)c(C(=O)O)cn(C3CCCC3)c12 [compound 78] | – | – | 500 to 1000 nM | > 50 µM | > 50 µM | –
CC1(C)COc2c(NCCCn3ccnc3)c(F)c(N)c3c(=O)ccn1c23 [compound 79] | – | < 100 nM | – | – | – | MIC (E. coli, ATCC8739; ATCC8739, read-out: Antimicrobial MIC [μM] E. Coli): > 50 µM; MIC (S. aureus Smith; read-out: Antimicrobial MIC [μM] S. aureus): > 50 µM
COc1c(NCCCc2ccccc2)c(F)c(N)c2c(=O)c(C(=O)O)cn(C3CCCC3)c12 [compound 79] | – | – | 100 to 500 nM | – | – | MIC (E. coli, ATCC8739; [8]): 10 to 50 µM (≈ 4.54 to 22.7 µg/mL); MIC (S. aureus Smith; [9]): 10 to 50 µM (≈ 4.54 to 22.7 µg/mL)
COc1c(NCCc2ccncc2)c(F)c(N)c2c(=O)c(C(=O)O)cn(C3CCCC3)c12 [compound 80] | – | – | > 1000 nM | > 50 µM | 10 to 50 µM (≈ 4.4 to 22 µg/mL) | –
C[C@H]1COc2c(NCCCNC(=O)C34CC5CC(CC(C5)C3)C4)c(F)c(N)c3c(=O)c(C(=O)O)cn1c23 [compound 80] | 5 to 10% | < 100 nM | – | – | – | –
CC1COc2c(NCCCc3ccccc3)c(F)c(N)c3c(=O)c(C(=O)O)cn1c23 (centres unmarked) [compound 81] | – | – | < 100 nM | 10 to 50 µM (≈ 4.11 to 20.6 µg/mL) | 0.5 to 10 µM (≈ 0.206 to 4.11 µg/mL) | –
COc1c(NCCCOc2ccccc2)c(F)c(N)c2c(=O)c(C(=O)O)cn(C3CC3)c12 [compound 82] | – | – | > 1000 nM | 10 to 50 µM (≈ 4.41 to 22.1 µg/mL) | 10 to 50 µM (≈ 4.41 to 22.1 µg/mL) | –
COc1c(NCCCn2cnc3ccccc32)c(F)c(N)c2c(=O)c(C(=O)O)cn(C3CC3)c12 [compound 83] | – | – | < 100 nM | – | – | MIC (E. coli, ATCC8739; [8]): 10 to 50 µM (≈ 4.65 to 23.3 µg/mL); MIC (S. aureus Smith; [9]): 0.5 to 10 µM (≈ 0.233 to 4.65 µg/mL)
COc1c(NCCNc2ccccc2)c(F)c(N)c2c(=O)c(C(=O)O)cn(C3CC3)c12 [compound 84] | – | – | 100 to 500 nM | 10 to 50 µM (≈ 4.26 to 21.3 µg/mL) | 0.5 to 10 µM (≈ 0.213 to 4.26 µg/mL) | –
COc1c(NCCc2cccnc2)c(F)c(N)c2c(=O)c(C(=O)O)cn(C3CC3)c12 [compound 85] | – | – | > 1000 nM | – | – | MIC (E. coli, ATCC8739; [8]): 0.5 to 10 µM (≈ 0.206 to 4.12 µg/mL); MIC (S. aureus Smith; [9]): < 0.5 µM
CC1COc2c(NCCNc3ccccn3)c(F)c(N)c3c(=O)c(C(=O)O)cn1c23 (centres unmarked) [compound 90] | – | – | < 100 nM | 0.5 to 10 µM (≈ 0.207 to 4.13 µg/mL) | 0.5 to 10 µM (≈ 0.207 to 4.13 µg/mL) | –
